Assay results published in patent US6114310A, “Efflux pump inhibitors” (priority 1998, dated 2000).

System: Pseudomonas aeruginosa PAM1001
Assay: microbe, parasite or virus in culture
Format: cell-based
How it was run: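 Checkerboard broth microdilution (NCCLS) with the efflux pump inhibitor and levofloxacin, each diluted along one axis of the plate, in Mueller Hinton Broth. Inoculum 5×10^5 CFU/ml from early-log culture; incubation 20 h at 35° C. Growth read at 650 nm and visually.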

[1] = Table 1, EPI Conc. μg/ml (number not given; column between 10 and 40 μg/ml)
[2] = Table 2, EPI Conc. μg/ml (number not given; column between 10 and 40 μg/ml)
[3] = Table 3, EPI Conc. μg/ml (number not given; column between 10 and 40 μg/ml)
[4] = Table 4, EPI Conc. μg/ml (number not given; column between 10 and 40 μg/ml)

## D-Lysyl-β-N-(Cyclopropylmethyl)alanine Quinoline-3-amide Trifluoroacetate [Example 27]
Table 1, EPI Conc. 0 μg/ml
  Levofloxacin MIC Against P. aeruginosa PAM1001 in Presence of Efflux Pump Inhibitor (EPI), Minimum Inhibitory Concentration: 4 µg/mL
Table 1, EPI Conc. 0.625 μg/ml
  Levofloxacin MIC Against P. aeruginosa PAM1001 in Presence of Efflux Pump Inhibitor (EPI), Minimum Inhibitory Concentration: 4 µg/mL
Table 1, EPI Conc. 5 μg/ml
  Levofloxacin MIC Against P. aeruginosa PAM1001 in Presence of Efflux Pump Inhibitor (EPI), Minimum Inhibitory Concentration: 0.125 µg/mL
Table 1, EPI Conc. 10 μg/ml
  Levofloxacin MIC Against P. aeruginosa PAM1001 in Presence of Efflux Pump Inhibitor (EPI), Minimum Inhibitory Concentration: 0.125 µg/mL
Table 1, EPI Conc. 40 μg/ml
  Levofloxacin MIC Against P. aeruginosa PAM1001 in Presence of Efflux Pump Inhibitor (EPI), Minimum Inhibitory Concentration: 0.06 µg/mL
[1]
  Levofloxacin MIC Against P. aeruginosa PAM1001 in Presence of Efflux Pump Inhibitor (EPI), Minimum Inhibitory Concentration: 0.125 µg/mL
Table 2, EPI Conc. 0 μg/ml
  Levofloxacin MIC Against P. aeruginosa PAM1001 in Presence of Efflux Pump Inhibitor (EPI), Minimum Inhibitory Concentration: 4 µg/mL
Table 2, EPI Conc. 0.625 μg/ml
  Levofloxacin MIC Against P. aeruginosa PAM1001 in Presence of Efflux Pump Inhibitor (EPI), Minimum Inhibitory Concentration: 4 µg/mL
Table 2, EPI Conc. 5 μg/ml
  Levofloxacin MIC Against P. aeruginosa PAM1001 in Presence of Efflux Pump Inhibitor (EPI), Minimum Inhibitory Concentration: 2 µg/mL
Table 2, EPI Conc. 10 μg/ml
  Levofloxacin MIC Against P. aeruginosa PAM1001 in Presence of Efflux Pump Inhibitor (EPI), Minimum Inhibitory Concentration: 2 µg/mL
Table 2, EPI Conc. 40 μg/ml
  Levofloxacin MIC Against P. aeruginosa PAM1001 in Presence of Efflux Pump Inhibitor (EPI), Minimum Inhibitory Concentration: 2 µg/mL
[2]
  Levofloxacin MIC Against P. aeruginosa PAM1001 in Presence of Efflux Pump Inhibitor (EPI), Minimum Inhibitory Concentration: 2 µg/mL
Table 3, EPI Conc. 0 μg/ml
  Levofloxacin MIC Against P. aeruginosa PAM1001 in Presence of Efflux Pump Inhibitor (EPI), Minimum Inhibitory Concentration: 4 µg/mL
Table 3, EPI Conc. 0.625 μg/ml
  Levofloxacin MIC Against P. aeruginosa PAM1001 in Presence of Efflux Pump Inhibitor (EPI), Minimum Inhibitory Concentration: 4 µg/mL
Table 3, EPI Conc. 5 μg/ml
  Levofloxacin MIC Against P. aeruginosa PAM1001 in Presence of Efflux Pump Inhibitor (EPI), Minimum Inhibitory Concentration: 0.06 µg/mL
Table 3, EPI Conc. 10 μg/ml
  Levofloxacin MIC Against P. aeruginosa PAM1001 in Presence of Efflux Pump Inhibitor (EPI), Minimum Inhibitory Concentration: 0.03 µg/mL
Table 3, EPI Conc. 40 μg/ml
  Levofloxacin MIC Against P. aeruginosa PAM1001 in Presence of Efflux Pump Inhibitor (EPI), Minimum Inhibitory Concentration: 0.03 µg/mL
[3]
  Levofloxacin MIC Against P. aeruginosa PAM1001 in Presence of Efflux Pump Inhibitor (EPI), Minimum Inhibitory Concentration: 0.03 µg/mL
Table 4, EPI Conc. 0 μg/ml
  Levofloxacin MIC Against P. aeruginosa PAM1001 in Presence of Efflux Pump Inhibitor (EPI), Minimum Inhibitory Concentration: 4 µg/mL
Table 4, EPI Conc. 0.625 μg/ml
  Levofloxacin MIC Against P. aeruginosa PAM1001 in Presence of Efflux Pump Inhibitor (EPI), Minimum Inhibitory Concentration: 4 µg/mL
Table 4, EPI Conc. 5 μg/ml
  Levofloxacin MIC Against P. aeruginosa PAM1001 in Presence of Efflux Pump Inhibitor (EPI), Minimum Inhibitory Concentration: 2 µg/mL
Table 4, EPI Conc. 10 μg/ml
  Levofloxacin MIC Against P. aeruginosa PAM1001 in Presence of Efflux Pump Inhibitor (EPI), Minimum Inhibitory Concentration: 2 µg/mL
Table 4, EPI Conc. 40 μg/ml
  Levofloxacin MIC Against P. aeruginosa PAM1001 in Presence of Efflux Pump Inhibitor (EPI), Minimum Inhibitory Concentration: 1 µg/mL
Table 4, EPI Conc. […]
  Levofloxacin MIC Against P. aeruginosa PAM1001 in Presence of Efflux Pump Inhibitor (EPI), Minimum Inhibitory Concentration: 4 µg/mL
[4]
  Levofloxacin MIC Against P. aeruginosa PAM1001 in Presence of Efflux Pump Inhibitor (EPI), Minimum Inhibitory Concentration: 1 µg/mL

## D-Lysyl-β-N-(Ethylthioethyl)alanine 2-Naphthylamide Trifluoroacetate [Example 25]
Table 1, EPI Conc. 0 μg/ml
  Levofloxacin MIC Against P. aeruginosa PAM1001 in Presence of Efflux Pump Inhibitor (EPI), Minimum Inhibitory Concentration: 4 µg/mL
Table 1, EPI Conc. 0.625 μg/ml
  Levofloxacin MIC Against P. aeruginosa PAM1001 in Presence of Efflux Pump Inhibitor (EPI), Minimum Inhibitory Concentration: 4 µg/mL
Table 1, EPI Conc. 5 μg/ml
  Levofloxacin MIC Against P. aeruginosa PAM1001 in Presence of Efflux Pump Inhibitor (EPI), Minimum Inhibitory Concentration: 1 µg/mL
Table 1, EPI Conc. 10 μg/ml
  Levofloxacin MIC Against P. aeruginosa PAM1001 in Presence of Efflux Pump Inhibitor (EPI), Minimum Inhibitory Concentration: 0.06 µg/mL
Table 1, EPI Conc. 40 μg/ml
  Levofloxacin MIC Against P. aeruginosa PAM1001 in Presence of Efflux Pump Inhibitor (EPI), Minimum Inhibitory Concentration: 0.06 µg/mL
Table 1, EPI Conc. […]
  Levofloxacin MIC Against P. aeruginosa PAM1001 in Presence of Efflux Pump Inhibitor (EPI), Minimum Inhibitory Concentration: 4 µg/mL
[1]
  Levofloxacin MIC Against P. aeruginosa PAM1001 in Presence of Efflux Pump Inhibitor (EPI), Minimum Inhibitory Concentration: 0.06 µg/mL
Table 2, EPI Conc. 0 μg/ml
  Levofloxacin MIC Against P. aeruginosa PAM1001 in Presence of Efflux Pump Inhibitor (EPI), Minimum Inhibitory Concentration: 4 µg/mL
Table 2, EPI Conc. 0.625 μg/ml
  Levofloxacin MIC Against P. aeruginosa PAM1001 in Presence of Efflux Pump Inhibitor (EPI), Minimum Inhibitory Concentration: 4 µg/mL
Table 2, EPI Conc. 5 μg/ml
  Levofloxacin MIC Against P. aeruginosa PAM1001 in Presence of Efflux Pump Inhibitor (EPI), Minimum Inhibitory Concentration: 1 µg/mL
Table 2, EPI Conc. 10 μg/ml
  Levofloxacin MIC Against P. aeruginosa PAM1001 in Presence of Efflux Pump Inhibitor (EPI), Minimum Inhibitory Concentration: 0.06 µg/mL
Table 2, EPI Conc. 40 μg/ml
  Levofloxacin MIC Against P. aeruginosa PAM1001 in Presence of Efflux Pump Inhibitor (EPI), Minimum Inhibitory Concentration: 0.06 µg/mL
[2]
  Levofloxacin MIC Against P. aeruginosa PAM1001 in Presence of Efflux Pump Inhibitor (EPI), Minimum Inhibitory Concentration: 0.06 µg/mL
Table 3, EPI Conc. 0 μg/ml
  Levofloxacin MIC Against P. aeruginosa PAM1001 in Presence of Efflux Pump Inhibitor (EPI), Minimum Inhibitory Concentration: 4 µg/mL
Table 3, EPI Conc. 0.625 μg/ml
  Levofloxacin MIC Against P. aeruginosa PAM1001 in Presence of Efflux Pump Inhibitor (EPI), Minimum Inhibitory Concentration: 4 µg/mL
Table 3, EPI Conc. 5 μg/ml
  Levofloxacin MIC Against P. aeruginosa PAM1001 in Presence of Efflux Pump Inhibitor (EPI), Minimum Inhibitory Concentration: 2 µg/mL
Table 3, EPI Conc. 10 μg/ml
  Levofloxacin MIC Against P. aeruginosa PAM1001 in Presence of Efflux Pump Inhibitor (EPI), Minimum Inhibitory Concentration: 1 µg/mL
Table 3, EPI Conc. 40 μg/ml
  Levofloxacin MIC Against P. aeruginosa PAM1001 in Presence of Efflux Pump Inhibitor (EPI), Minimum Inhibitory Concentration: 0.25 µg/mL
Table 3, EPI Conc. […]
  Levofloxacin MIC Against P. aeruginosa PAM1001 in Presence of Efflux Pump Inhibitor (EPI), Minimum Inhibitory Concentration: 4 µg/mL
[3]
  Levofloxacin MIC Against P. aeruginosa PAM1001 in Presence of Efflux Pump Inhibitor (EPI), Minimum Inhibitory Concentration: 0.50 µg/mL
Table 4, EPI Conc. 0 μg/ml
  Levofloxacin MIC Against P. aeruginosa PAM1001 in Presence of Efflux Pump Inhibitor (EPI), Minimum Inhibitory Concentration: 4 µg/mL
Table 4, EPI Conc. 0.625 μg/ml
  Levofloxacin MIC Against P. aeruginosa PAM1001 in Presence of Efflux Pump Inhibitor (EPI), Minimum Inhibitory Concentration: 4 µg/mL
Table 4, EPI Conc. 5 μg/ml
  Levofloxacin MIC Against P. aeruginosa PAM1001 in Presence of Efflux Pump Inhibitor (EPI), Minimum Inhibitory Concentration: 0.125 µg/mL
Table 4, EPI Conc. 10 μg/ml
  Levofloxacin MIC Against P. aeruginosa PAM1001 in Presence of Efflux Pump Inhibitor (EPI), Minimum Inhibitory Concentration: 0.06 µg/mL
Table 4, EPI Conc. 40 μg/ml
  Levofloxacin MIC Against P. aeruginosa PAM1001 in Presence of Efflux Pump Inhibitor (EPI), Minimum Inhibitory Concentration: 0.125 µg/mL
[4]
  Levofloxacin MIC Against P. aeruginosa PAM1001 in Presence of Efflux Pump Inhibitor (EPI), Minimum Inhibitory Concentration: 0.125 µg/mL
